Laboratory results from patent US12435044B2, “Pyridazinone herbicides and pyridazinone intermediates used to prepare a herbicide” (FMC Corporation, priority 2018, dated 2025).

Columns and labels:
Type in all cases: in vivo
[1] = test system: waterhemp (common waterhemp, Amaranthus rudis); assay: Test C pre-/postemergence greenhouse test; details: scale 0 to 100
Excerpt: (§1) Seeds of plant species selected from blackgrass (Alopecurus myosuroides), ryegrass, Italian (Lolium multiflorum), wheat, winter (winter wheat, Triticum aestivum), galium (catchweed bedstraw, Galium aparine), corn (Zea mays), crabgrass, large (Digitaria sanguinalis), foxtail, giant (Setaria faberii), johnsongrass (Sorghum halepense), lambsquarters (Chenopodium album), morningglory (Ipomoea coccinea), nutsedge, yellow (Cyperus esculentus), pigweed (Amaranthus retroflexus), ragweed (common ragweed, Ambrosia elatior), soybean (Glycine max), barnyardgrass (Echinochloa crus-galli), oilseed rape (Brassica napus), waterhemp (common waterhemp, Amaranthus rudis), pigweed, palmer (Amaranthus palmeri), kochia (Kochia scoparia), oat, wild (Avena fatua), surinam grass (Brachiaria decumbens), windgrass (Apera spica-venti), poinsettia, wild (Euphorbia heterophylla) and velvetleaf (Abutilon theophrasti) were planted into a silt loam soil and treated preemergence with test chemicals formulated in a non-phytotoxic solvent mixture which included a surfactant.
(§2) At the same time, plants selected from these crop and weed species and also chickweed (common chickweed, Stellaria media), buckwheat, wild (Polygonum convolvulus), mustard, wild (Sinapis arvensis), field poppy (Papaver rhoeas), field violet (Viola arvensis), nightshade (eastern black nightshade, Solanum ptycanthum), speedwell (bird's-eye speedwell, Veronica persica), horseweed (Conyza canadensis), cutleaf geranium (Geranium dissectum), and Canada thistle (Cirsium arvense) were planted in pots containing Redi-Earth® planting medium (Scotts Company, 14111 Scottslawn Road, Marysville, Ohio 43041) comprising spaghnum peat moss, vermiculite, wetting agent and starter nutrients and treated with postemergence applications of test chemicals formulated in the same manner. Plants ranged in height from 2 to 18 cm (1- to 4-leaf stage) for postemergence treatments. Treated plants and controls were maintained in a greenhouse for 13 to 21 d, after which time all species were compared to controls and visually evaluated. Plant response ratings, summarized in Table C-1 (postemergence) and C-2 (preemergence), are based on a scale of 0 to 100 where 0 is no effect and 100 is complete control. A dash (-) response means no test result.

[2] = test system: barnyardgrass (Echinochloa crus-galli); assay: Test C pre-/postemergence greenhouse test; details: scale 0 to 100
Excerpt: as §1, §2

[3] = test system: wheat, winter (winter wheat, Triticum aestivum); assay: Test C pre-/postemergence greenhouse test; details: scale 0 to 100
Excerpt: as §1, §2

kochia (Kochia scoparia) [4] = assay: Test C pre-/postemergence greenhouse test; details: Postemergence, scale 0 to 100
Excerpt: as §1, §2

[5] = test system: johnsongrass (Sorghum halepense); assay: Test C pre-/postemergence greenhouse test; details: scale 0 to 100
Excerpt: as §1, §2

[6] = test system: galium (catchweed bedstraw, Galium aparine); assay: Test A postemergence greenhouse test
Excerpt: (§3) Seeds of plant species selected from barnyardgrass (Echinochloa crus-galli), kochia (Kochia scoparia), ragweed (common ragweed, Ambrosia elatior), ryegrass, Italian (Lolium multiflorum), foxtail, giant (Setaria faberii), foxtail, green (Setaria viridis) and pigweed (Amaranthus retroflexus) were planted into a blend of loam soil and sand and treated preemergence with a directed soil spray using test chemicals formulated in a non-phytotoxic solvent mixture which included a surfactant.
(§4) At the same time, plants selected from these weed species and also wheat (Triticum aestivum), corn (Zea mays), blackgrass (Alopecurus myosuroides) and galium (catchweed bedstraw, Galium aparine) were planted in pots containing the same blend of loam soil and sand and treated with postemergence applications of test chemicals formulated in the same manner. Plants ranged in height from 2 to 10 cm and were in the one- to two-leaf stage for the postemergence treatment. Treated plants and untreated controls were maintained in a greenhouse for approximately 10 d, after which time all treated plants were compared to untreated controls and visually evaluated for injury. Plant response ratings, summarized in Table A, are based on a 0 to 100 scale where 0 is no effect and 100 is complete control. A dash (-) response means no test result.

corn (Zea mays) = assay: Test A postemergence greenhouse test
Excerpt: as §3, §4

[7] = test system: blackgrass (Alopecurus myosuroides); assay: Test A postemergence greenhouse test
Excerpt: as §3, §4

[8] = test system: wheat (Triticum aestivum); assay: Test A postemergence greenhouse test
Excerpt: as §3, §4

[9] = test system: ryegrass, Italian (Lolium multiflorum); assay: Test A pre-/postemergence greenhouse test
Excerpt: as §3, §4

[10] = test system: pigweed (Amaranthus retroflexus); assay: Test A pre-/postemergence greenhouse test
Excerpt: as §3, §4

[11] = test system: barnyardgrass (Echinochloa crus-galli); assay: Test A pre-/postemergence greenhouse test
Excerpt: as §3, §4

[12] = test system: ragweed (common ragweed, Ambrosia elatior); assay: Test A pre-/postemergence greenhouse test
Excerpt: as §3, §4

kochia (Kochia scoparia) [13] = assay: Test A pre-/postemergence greenhouse test
Excerpt: as §3, §4

Cc1ccc2ccc(C)c(-c3c(O)c(Cl)nn(C)c3=O)c2c1 [Cpd. No. 20, 6-chloro-4-(2,7-dimethyl-1-naphthalenyl)-5-hydroxy-2-methyl-3(2H)-pyridazinone]
Plant response rating, Waterhemp ([1]; Postemergence, 16 g ai/ha): 75 | Plant response rating, Waterhemp ([1]; Postemergence, 31 g ai/ha): 70 | Plant response rating, Waterhemp ([1]; Postemergence, 62 g ai/ha): 95 | Plant response rating, Waterhemp ([1]; Postemergence, 125 g ai/ha): 95 | Plant response rating, Waterhemp ([1]; Preemergence, 31 g ai/ha): 100 | Plant response rating, Waterhemp ([1]; Preemergence, 61 g ai/ha): 65 | Plant response rating, Waterhemp ([1]; Preemergence, 62 g ai/ha): 100 | Plant response rating, Waterhemp ([1]; Preemergence, 125 g ai/ha): 100 | Plant response rating, Barnyardgrass ([2]; Postemergence, 16 g ai/ha): 55 | Plant response rating, Barnyardgrass ([2]; Postemergence, 31 g ai/ha): 75 | Plant response rating, Barnyardgrass ([2]; Postemergence, 62 g ai/ha): 75 | Plant response rating, Barnyardgrass ([2]; Postemergence, 125 g ai/ha): 85 | Plant response rating, Barnyardgrass ([2]; Preemergence, 31 g ai/ha): 85 | Plant response rating, Barnyardgrass ([2]; Preemergence, 61 g ai/ha): 70 | Plant response rating, Barnyardgrass ([2]; Preemergence, 62 g ai/ha): 95 | Plant response rating, Barnyardgrass ([2]; Preemergence, 125 g ai/ha): 100 | Plant response rating, Wheat ([3]; Postemergence, 16 g ai/ha): 0 | Plant response rating, Wheat ([3]; Postemergence, 31 g ai/ha): 0 | Plant response rating, Wheat ([3]; Postemergence, 62 g ai/ha): 0 | Plant response rating, Wheat ([3]; Postemergence, 125 g ai/ha): 0 | Plant response rating, Wheat ([3]; Preemergence, 31 g ai/ha): 60 | Plant response rating, Wheat ([3]; Preemergence, 61 g ai/ha): 0 | Plant response rating, Wheat ([3]; Preemergence, 62 g ai/ha): 60 | Plant response rating, Wheat ([3]; Preemergence, 125 g ai/ha): 70 | Plant response rating, Kochia (kochia (Kochia scoparia) [4]; 16 g ai/ha): 80 | Plant response rating, Kochia (kochia (Kochia scoparia) [4]; 31 g ai/ha): 85 | Plant response rating, Kochia (kochia (Kochia scoparia) [4]; 62 g ai/ha): 90 | Plant response rating, Kochia (kochia (Kochia scoparia) [4]; 125 g ai/ha): 98 | Plant response rating, Johnsongrass ([5]; Postemergence, 16 g ai/ha): 5 | Plant response rating, Johnsongrass ([5]; Postemergence, 31 g ai/ha): 10 | Plant response rating, Johnsongrass ([5]; Postemergence, 62 g ai/ha): 30 | Plant response rating, Johnsongrass ([5]; Postemergence, 125 g ai/ha): 35 | Plant response rating, Johnsongrass ([5]; Preemergence, 31 g ai/ha): 40 | Plant response rating, Johnsongrass ([5]; Preemergence, 61 g ai/ha): 35 | Plant response rating, Johnsongrass ([5]; Preemergence, 62 g ai/ha): 30 | Plant response rating, Johnsongrass ([5]; Preemergence, 125 g ai/ha): 65 | Plant response rating (0 to 100 scale) ([6]; 31 g ai/ha): 90 | Plant response rating (0 to 100 scale) ([6]; 125 g ai/ha): 100 | Plant response rating (0 to 100 scale) (corn (Zea mays); 31 g ai/ha): 30 | Plant response rating (0 to 100 scale) (corn (Zea mays); 125 g ai/ha): 30 | Plant response rating (0 to 100 scale) ([7]; 31 g ai/ha): 0 | Plant response rating (0 to 100 scale) ([7]; 125 g ai/ha): 60 | Plant response rating (0 to 100 scale) ([8]; 31 g ai/ha): 20 | Plant response rating (0 to 100 scale) ([8]; 125 g ai/ha): 30 | Plant response rating (0 to 100 scale) ([9]; Postemergence, 31 g ai/ha): 90 | Plant response rating (0 to 100 scale) ([9]; Postemergence, 125 g ai/ha): 100 | Plant response rating (0 to 100 scale) ([9]; Preemergence, 31 g ai/ha): 90 | Plant response rating (0 to 100 scale) ([9]; Preemergence, 125 g ai/ha): 100 | Plant response rating (0 to 100 scale) ([10]; Postemergence, 31 g ai/ha): 90 | Plant response rating (0 to 100 scale) ([10]; Postemergence, 125 g ai/ha): 100 | Plant response rating (0 to 100 scale) ([10]; Preemergence, 31 g ai/ha): 100 | Plant response rating (0 to 100 scale) ([10]; Preemergence, 125 g ai/ha): 100 | Plant response rating (0 to 100 scale) ([11]; Postemergence, 31 g ai/ha): 80 | Plant response rating (0 to 100 scale) ([11]; Postemergence, 125 g ai/ha): 100 | Plant response rating (0 to 100 scale) ([11]; Preemergence, 31 g ai/ha): 70 | Plant response rating (0 to 100 scale) ([11]; Preemergence, 125 g ai/ha): 100 | Plant response rating (0 to 100 scale) ([12]; Postemergence, 31 g ai/ha): 90 | Plant response rating (0 to 100 scale) ([12]; Postemergence, 125 g ai/ha): 90 | Plant response rating (0 to 100 scale) ([12]; Preemergence, 31 g ai/ha): 20 | Plant response rating (0 to 100 scale) ([12]; Preemergence, 125 g ai/ha): 90 | Plant response rating (0 to 100 scale) (kochia (Kochia scoparia) [13]; Postemergence, 31 g ai/ha): 70 | Plant response rating (0 to 100 scale) (kochia (Kochia scoparia) [13]; Postemergence, 125 g ai/ha): 90 | Plant response rating (0 to 100 scale) (kochia (Kochia scoparia) [13]; Preemergence, 31 g ai/ha): 30 | Plant response rating (0 to 100 scale) (kochia (Kochia scoparia) [13]; Preemergence, 125 g ai/ha): 90
